In data set [1] the test system is maximal electroshock (MES) seizures. Put plainly: maximal electroshock seizure (MES) test. Format: in vivo, mice. (In the maximal electroshock model the usual endpoint is tonic extension of the hind limbs.)
Another data set concerns Na+ channel (site 2). Put plainly: radioligand binding Na+ channel (site 2). Conditions: 100 µM, rat cerebral cortex. As for the experimental part: (§1) Binding/functional studies were performed commercially in Cerep Laboratories (Poitiers, France) using testing procedures described elsewhere. The general information is listed in Table S3 in the Supporting Information.
(§2) Table S3. The general information of radioligand binding/functional assays. […]
(§3) Assays were performed commercially in Eurofins Cerep SA (Celle l’Evescault, France) and Eurofins
(§4) Panlabs Discovery Services Taiwan, Ltd. (New Taipei City, Taiwan), using procedures describe

The next data set concerns the target T1, Cav2.2 N-type (Rattus norvegicus, UniProt P54290).
T1 construct: Rat cerebral cortex; tissue Cerep Laboratories / Eurofins (contract assay); host or cells: rat cerebral cortex
Put plainly: radioligand binding Cav2.2 N-type. Conditions: rat cerebral cortex, antagonist radioligand. As for the experimental part: as §1, §2
N-type Ca2+ [3H] Gabapentin binding (antagonist radioligand) […]
as §3, §4

In data set [2] the test system is Cav1.2 (L-type) (dihydropyridine site). Put plainly: radioligand binding Cav1.2 (L-type) dihydropyridine site. Conditions: 100 µM, rat cerebral cortex. As for the experimental part:
as §1
Table S3. The general information of radioligand binding/functional assays.
Ca2+channel (L, dihydropyridine site) (antagonist radioligand) […]
as §3, §4

The test system of data set [3] is Cav1.2 (L-type) (verapamil site). Put plainly: radioligand binding Cav1.2 (L-type) verapamil site. The following applies: 100 µM, rat cerebral cortex. As for the experimental part: as §1, §2
Ca2+channel (L, verapamil site) (antagonist radioligand) […]
as §3, §4

The target of a further data set is T2, Potassium channel (hERG) (Homo sapiens, UniProt Q12809).
T2 construct: Cerep Laboratories / Eurofins (contract assay)
Put plainly: radioligand binding potassium channel (hERG). Conditions: 100 µM, human recombinant HEK-293 cell. As for the experimental part: as §1, §2
(§5) Potassium channel (hERG) […]
as §3, §4

In another data set the target is T3, hERG potassium channel (Homo sapiens, UniProt Q12809).
T3 construct: Cerep Laboratories / Eurofins (contract assay)
Put plainly: radioligand binding potassium channel (hERG). Conditions: HEK-293 cells expressing human recombinant hERG, human recombinant HEK-293 cell, read-out: % Inhibition of Control Specific Binding. As for the experimental part:
as §1, §2, §5, §3, §4
Background: The hERG channel carries a current that helps repolarise heart muscle cells.

Data set [4] addresses T4, Cav1.2 (h) calcium ion channel (Homo sapiens, UniProt Q13936).
T4 construct: Eurofins Cerep SA / Eurofins Panlabs Discovery Services Taiwan (contract assay)
Put plainly: Cav1.2 (h) calcium ion channel cell-based antagonist calcium flux assay. As for the experimental part: as §1, §2
Cav1.2 (L-type) (h) calcium ion channel cell based antagonist calcium flux assay
as §3, §4
For orientation: A change in cytosolic calcium serves as a functional read-out for many receptors and channels.

The next data set deals with T5, human recombinant MAO-B (Homo sapiens, UniProt P27338).
T5 construct: purchased Sigma Aldrich
T5 sequence (P27338 1-520): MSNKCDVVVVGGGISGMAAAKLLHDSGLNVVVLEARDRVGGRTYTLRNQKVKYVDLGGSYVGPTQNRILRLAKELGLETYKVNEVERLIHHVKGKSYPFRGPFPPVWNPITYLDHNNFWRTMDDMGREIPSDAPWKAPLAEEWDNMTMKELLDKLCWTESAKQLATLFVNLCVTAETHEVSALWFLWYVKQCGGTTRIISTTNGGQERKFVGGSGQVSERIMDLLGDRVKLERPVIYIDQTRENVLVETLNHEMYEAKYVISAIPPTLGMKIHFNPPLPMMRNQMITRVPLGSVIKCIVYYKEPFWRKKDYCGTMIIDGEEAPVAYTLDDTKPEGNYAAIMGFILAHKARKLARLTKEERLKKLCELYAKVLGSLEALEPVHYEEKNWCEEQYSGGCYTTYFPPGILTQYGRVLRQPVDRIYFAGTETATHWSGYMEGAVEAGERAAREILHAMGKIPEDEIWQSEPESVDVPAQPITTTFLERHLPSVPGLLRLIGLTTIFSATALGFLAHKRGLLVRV
Put plainly: fluorometric monoamine oxidase B inhibition assay. Type of data set: biochemical. The following applies: read-out: % inhibition MAO-B (1 µM), mean of two independent experiments.

The next data set concerns 6 Hz (32 mA) seizures. Put plainly: 6 Hz (32 mA) psychomotor seizure model.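 Also: adult male albino Swiss CD-1 mice, each used once, with compounds suspended in 1% Tween 80 in water as vehicle.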
The next data set deals with 6 Hz (44 mA) seizures. Put plainly: 6 Hz (44 mA) psychomotor seizure model.

Like-named read-outs stand apart in the source and are kept apart here. Bounds are passed on as bounds.

The results in this text go back to publication PMC11432405, “Development of Novel Alaninamide Derivatives with Anticonvulsant Activity and Favorable Safety Profiles in Animal Models” (International Journal of Molecular Sciences, 2024).

T1 sequence (P54290 25-944 limits assumed): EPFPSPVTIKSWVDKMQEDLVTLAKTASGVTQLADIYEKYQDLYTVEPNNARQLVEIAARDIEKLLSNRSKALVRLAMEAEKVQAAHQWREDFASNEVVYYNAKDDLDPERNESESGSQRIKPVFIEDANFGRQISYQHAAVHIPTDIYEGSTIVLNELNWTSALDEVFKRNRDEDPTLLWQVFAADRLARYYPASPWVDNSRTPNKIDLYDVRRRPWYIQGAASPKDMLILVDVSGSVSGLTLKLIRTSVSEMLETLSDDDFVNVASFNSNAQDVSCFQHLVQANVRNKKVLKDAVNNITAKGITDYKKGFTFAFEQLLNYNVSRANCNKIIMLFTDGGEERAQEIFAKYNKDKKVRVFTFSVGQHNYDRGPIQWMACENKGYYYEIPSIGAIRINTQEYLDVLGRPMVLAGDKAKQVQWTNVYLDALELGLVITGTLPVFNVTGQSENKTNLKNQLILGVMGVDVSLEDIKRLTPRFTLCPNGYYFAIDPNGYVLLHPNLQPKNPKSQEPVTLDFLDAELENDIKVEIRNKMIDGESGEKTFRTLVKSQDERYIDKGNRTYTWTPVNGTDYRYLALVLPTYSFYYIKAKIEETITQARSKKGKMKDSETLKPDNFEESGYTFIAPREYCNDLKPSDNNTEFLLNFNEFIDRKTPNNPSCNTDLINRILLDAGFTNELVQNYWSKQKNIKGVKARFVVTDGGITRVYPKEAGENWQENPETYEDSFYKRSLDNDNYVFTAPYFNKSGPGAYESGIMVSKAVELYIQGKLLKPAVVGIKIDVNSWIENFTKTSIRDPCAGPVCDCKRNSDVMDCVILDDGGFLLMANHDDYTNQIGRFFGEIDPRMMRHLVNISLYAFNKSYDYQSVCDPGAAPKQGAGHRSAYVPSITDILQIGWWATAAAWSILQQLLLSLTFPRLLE
T1 sequence (P54290 945-1091 limits assumed): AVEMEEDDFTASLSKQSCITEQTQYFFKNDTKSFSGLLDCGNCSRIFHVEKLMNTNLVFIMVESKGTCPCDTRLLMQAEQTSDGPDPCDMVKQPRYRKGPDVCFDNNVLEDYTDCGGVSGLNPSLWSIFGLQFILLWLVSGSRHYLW
T4 sequence (Q13936 whole entry): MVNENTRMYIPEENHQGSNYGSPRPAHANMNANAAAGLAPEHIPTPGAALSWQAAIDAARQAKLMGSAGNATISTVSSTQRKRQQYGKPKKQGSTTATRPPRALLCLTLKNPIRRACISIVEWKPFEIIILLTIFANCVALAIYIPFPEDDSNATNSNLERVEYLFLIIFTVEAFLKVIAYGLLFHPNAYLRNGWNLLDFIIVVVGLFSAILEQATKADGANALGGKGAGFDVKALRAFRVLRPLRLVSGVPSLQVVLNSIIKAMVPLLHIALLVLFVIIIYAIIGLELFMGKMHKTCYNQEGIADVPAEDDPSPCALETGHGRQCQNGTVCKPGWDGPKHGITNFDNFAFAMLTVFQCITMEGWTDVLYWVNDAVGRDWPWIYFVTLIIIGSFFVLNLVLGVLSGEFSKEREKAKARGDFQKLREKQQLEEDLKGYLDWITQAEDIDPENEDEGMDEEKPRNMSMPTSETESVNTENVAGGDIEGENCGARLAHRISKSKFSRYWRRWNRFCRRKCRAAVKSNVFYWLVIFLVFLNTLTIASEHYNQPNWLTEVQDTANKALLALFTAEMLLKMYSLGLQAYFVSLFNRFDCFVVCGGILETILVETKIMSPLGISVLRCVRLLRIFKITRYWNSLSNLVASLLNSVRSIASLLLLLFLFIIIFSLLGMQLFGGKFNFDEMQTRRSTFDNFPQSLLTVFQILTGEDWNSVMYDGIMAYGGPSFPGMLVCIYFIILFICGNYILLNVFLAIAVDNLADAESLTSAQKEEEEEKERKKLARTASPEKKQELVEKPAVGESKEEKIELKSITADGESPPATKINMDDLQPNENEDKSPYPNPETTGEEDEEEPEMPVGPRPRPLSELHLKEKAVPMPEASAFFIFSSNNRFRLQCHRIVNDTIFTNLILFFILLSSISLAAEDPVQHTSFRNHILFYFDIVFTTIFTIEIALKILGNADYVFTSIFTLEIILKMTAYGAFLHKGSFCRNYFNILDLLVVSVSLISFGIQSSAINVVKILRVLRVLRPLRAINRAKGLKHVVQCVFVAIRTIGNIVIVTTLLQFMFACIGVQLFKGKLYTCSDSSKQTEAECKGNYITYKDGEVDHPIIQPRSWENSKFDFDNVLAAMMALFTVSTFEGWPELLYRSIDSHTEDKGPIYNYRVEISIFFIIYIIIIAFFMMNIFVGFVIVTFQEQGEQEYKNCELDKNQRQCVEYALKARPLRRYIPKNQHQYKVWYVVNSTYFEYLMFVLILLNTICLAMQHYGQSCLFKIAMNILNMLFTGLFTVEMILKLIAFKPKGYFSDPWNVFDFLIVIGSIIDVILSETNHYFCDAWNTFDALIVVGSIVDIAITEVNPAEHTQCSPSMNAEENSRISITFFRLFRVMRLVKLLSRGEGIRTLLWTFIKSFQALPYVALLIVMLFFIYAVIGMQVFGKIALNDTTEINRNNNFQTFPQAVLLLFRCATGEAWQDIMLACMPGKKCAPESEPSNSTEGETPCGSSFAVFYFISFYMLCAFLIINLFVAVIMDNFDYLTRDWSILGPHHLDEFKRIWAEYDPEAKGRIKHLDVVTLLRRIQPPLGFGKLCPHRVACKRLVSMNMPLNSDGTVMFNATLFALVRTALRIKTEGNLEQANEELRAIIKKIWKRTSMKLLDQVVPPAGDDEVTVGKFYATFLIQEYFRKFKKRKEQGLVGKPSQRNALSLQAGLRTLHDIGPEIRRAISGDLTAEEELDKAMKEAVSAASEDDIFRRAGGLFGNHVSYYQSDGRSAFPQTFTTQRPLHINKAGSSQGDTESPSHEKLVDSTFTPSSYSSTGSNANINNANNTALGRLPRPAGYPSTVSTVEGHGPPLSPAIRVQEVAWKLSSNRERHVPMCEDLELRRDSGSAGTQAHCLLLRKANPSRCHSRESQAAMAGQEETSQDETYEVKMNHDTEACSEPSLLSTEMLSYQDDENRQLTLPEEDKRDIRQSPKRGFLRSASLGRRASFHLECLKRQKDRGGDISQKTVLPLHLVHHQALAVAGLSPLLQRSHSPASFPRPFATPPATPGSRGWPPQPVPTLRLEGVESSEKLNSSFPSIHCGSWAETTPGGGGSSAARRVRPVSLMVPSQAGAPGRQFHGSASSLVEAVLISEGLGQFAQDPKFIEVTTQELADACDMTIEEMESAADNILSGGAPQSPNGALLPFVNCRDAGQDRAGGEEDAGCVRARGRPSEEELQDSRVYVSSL
T4 sequence (Q08289 whole entry partner): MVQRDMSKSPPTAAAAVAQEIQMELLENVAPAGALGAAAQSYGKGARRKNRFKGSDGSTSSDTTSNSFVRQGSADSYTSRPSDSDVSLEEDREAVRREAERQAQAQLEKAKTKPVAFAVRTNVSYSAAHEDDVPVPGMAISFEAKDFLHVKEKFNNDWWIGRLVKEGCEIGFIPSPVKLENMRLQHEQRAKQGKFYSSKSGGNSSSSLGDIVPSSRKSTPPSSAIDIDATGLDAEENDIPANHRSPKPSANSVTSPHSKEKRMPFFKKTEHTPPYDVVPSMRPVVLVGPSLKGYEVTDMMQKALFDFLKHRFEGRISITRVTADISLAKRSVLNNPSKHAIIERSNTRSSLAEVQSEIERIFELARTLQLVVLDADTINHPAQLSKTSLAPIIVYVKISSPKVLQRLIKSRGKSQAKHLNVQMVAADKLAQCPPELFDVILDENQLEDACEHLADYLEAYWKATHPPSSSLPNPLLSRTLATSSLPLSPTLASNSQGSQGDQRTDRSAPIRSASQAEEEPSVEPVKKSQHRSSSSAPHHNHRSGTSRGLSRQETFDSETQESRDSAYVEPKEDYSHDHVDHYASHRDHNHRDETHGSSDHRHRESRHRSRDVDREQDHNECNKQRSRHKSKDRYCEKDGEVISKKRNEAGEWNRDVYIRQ
T4 sequence (P54289 25-1103 partner): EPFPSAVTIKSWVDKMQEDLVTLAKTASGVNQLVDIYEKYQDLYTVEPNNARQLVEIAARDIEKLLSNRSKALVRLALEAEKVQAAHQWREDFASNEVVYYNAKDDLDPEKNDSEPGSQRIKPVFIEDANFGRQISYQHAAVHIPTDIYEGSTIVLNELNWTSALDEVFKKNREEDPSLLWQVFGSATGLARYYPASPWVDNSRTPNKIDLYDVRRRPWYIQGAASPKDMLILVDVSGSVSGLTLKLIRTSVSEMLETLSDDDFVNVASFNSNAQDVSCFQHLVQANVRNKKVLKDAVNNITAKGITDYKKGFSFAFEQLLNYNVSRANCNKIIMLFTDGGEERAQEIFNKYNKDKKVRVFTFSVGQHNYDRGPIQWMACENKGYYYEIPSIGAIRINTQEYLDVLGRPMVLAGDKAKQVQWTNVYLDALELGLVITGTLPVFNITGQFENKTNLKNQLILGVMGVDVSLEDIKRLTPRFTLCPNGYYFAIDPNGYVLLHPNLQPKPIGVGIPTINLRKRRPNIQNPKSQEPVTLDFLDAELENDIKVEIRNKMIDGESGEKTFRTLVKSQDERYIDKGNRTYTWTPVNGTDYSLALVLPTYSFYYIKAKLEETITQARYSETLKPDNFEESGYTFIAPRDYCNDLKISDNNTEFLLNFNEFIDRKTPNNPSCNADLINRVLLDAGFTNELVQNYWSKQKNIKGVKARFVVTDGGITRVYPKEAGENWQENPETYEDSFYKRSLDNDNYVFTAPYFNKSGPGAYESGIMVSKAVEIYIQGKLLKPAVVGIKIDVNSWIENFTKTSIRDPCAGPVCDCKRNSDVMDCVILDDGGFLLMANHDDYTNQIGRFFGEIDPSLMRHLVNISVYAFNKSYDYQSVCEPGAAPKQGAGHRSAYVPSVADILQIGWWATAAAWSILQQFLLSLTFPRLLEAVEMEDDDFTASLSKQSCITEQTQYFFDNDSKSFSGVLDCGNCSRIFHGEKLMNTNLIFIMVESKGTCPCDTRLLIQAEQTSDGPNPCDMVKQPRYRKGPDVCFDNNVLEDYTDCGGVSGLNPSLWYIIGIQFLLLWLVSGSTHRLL

As usually defined, the ED50 is the midpoint of the dose-response relation. Usually inhibition stands for how much of the control response was suppressed. As usually defined, the melting point is the temperature, or range, at which the solid turns liquid. Compound `CC(C(=O)NCc1ccc(OCc2ccccc2)cc1)N1C(=O)CCC1=O` (stereo not drawn) [Compound 5, N-(4-(benzyloxy)benzyl)-2-(2,5-dioxopyrrolidin-1-yl)propanamide] registered a melting point of 102.9 to 103.4 °C. Further, the responders at 100 mg/kg in data set [1] (Mus musculus, ip, mice i.p., 100 mg/kg, 0.5 h, four mice, read-out: protection (efficacy) in the MES screening) stood at 100%. Besides, in [1] (Mus musculus, ip, mice i.p., TPE 0.5 h, 95% confidence interval in parentheses), the ED50 turned out to be 48 mg/kg. In addition, in data set [1] (Mus musculus, ip, mice i.p., dose of 100 mg/kg, pretreatment time 0.5 h, read-out: MES test: number of mice protected / number of mice tested (converted)), the responders at 100 mg/kg was 100%. The “PI (TD50/ED50) MES” value in [1] (TD50 rotarod / ED50 MES) was greater than 6.3. For the same compound, in the data set with Na+ channel (site 2), the “% Inhibition of Control Specific Binding” value was 38.2 (100) %. Besides, on Cav2.2 N-type (100 µM), the “% Inhibition of Control Specific Binding” value is recorded as “no significant interaction”. Further, at Cav2.2 N-type (read-out: % Inhibition of Control Specific Binding), the inhibition at 100 µM stood at 1.1%. Further, the “% Inhibition of Control Specific Binding” value in data set [2] is listed as 82.3 (100) %. The “% Inhibition of Control Specific Binding” value in data set [3] is recorded as 57.1 (100) %. Further, on Potassium channel (hERG), the “% Inhibition of Control Specific Binding” value is listed as “did not bind”. In addition, the inhibition at 100 µM at hERG potassium channel turned out to be 4.5%. In addition, the inhibition at 100 µM in [4] (HEK293, human recombinant HEK-293 cell, read-out: % Inhibition of Control Agonist Response) was 85%. The inhibition at 100 µM in data set [4] (read-out: inhibition rate of the Cav1.2 (L-type) calcium channel (text summary of binding and functional assays)) is greater than 50%. Further, on human recombinant MAO-B, the inhibition at 1 µM is 0%. The ED50 in the data set on 6 Hz (32 mA) seizures (Mus musculus, ip, 0.5 h, read-out: ED50 6 Hz (32 mA), mice i.p., TPE 0.5 h, 95% confidence interval in parentheses) was found to be 45.2 mg/kg. For the same compound, the responders at 100 mg/kg in the data set on 6 Hz (32 mA) seizures (Mus musculus, ip, 0.5 h, read-out: protection (efficacy) in the 6 Hz (32 mA) screening) was 50%. In the data set on 6 Hz (32 mA) seizures (TD50 rotarod / ED50 6 Hz (32 mA)), the “PI (TD50/ED50) 6 Hz” value was greater than 6.6. Moreover, the “ED50 6 Hz (32 mA)” value with 6 Hz (32 mA) seizures (mice i.p., TPE 0.5 h, 95% confidence interval in parentheses) is 45.19 (37.31–54.73) mg/kg. Also, the ED50 with 6 Hz (44 mA) seizures (Mus musculus, ip, 0.5 h, read-out: ED50 6 Hz (44 mA)) was 201 mg/kg. Besides, the “PI (TD50/ED50) 6 Hz (44 mA)” value with 6 Hz (44 mA) seizures (TD50 rotarod / ED50 6 Hz (44 mA)) is reported as greater than 1.5.
